This experiment has as its target full length MPS1 (Homo sapiens (Human), UniProt P33981). As to the kind of experiment: Measurement of inhibition of MPS1 kinase (Caliper EZ reader, fluorescent labelled peptide H236). Format: biochemical. The note with it: full length MPS1 12.5 nM or 3 nM, peptide H236 5 μM, ATP 10 μM, 60 min at room temperature.

full length MPS1, sequence (P33981 whole entry): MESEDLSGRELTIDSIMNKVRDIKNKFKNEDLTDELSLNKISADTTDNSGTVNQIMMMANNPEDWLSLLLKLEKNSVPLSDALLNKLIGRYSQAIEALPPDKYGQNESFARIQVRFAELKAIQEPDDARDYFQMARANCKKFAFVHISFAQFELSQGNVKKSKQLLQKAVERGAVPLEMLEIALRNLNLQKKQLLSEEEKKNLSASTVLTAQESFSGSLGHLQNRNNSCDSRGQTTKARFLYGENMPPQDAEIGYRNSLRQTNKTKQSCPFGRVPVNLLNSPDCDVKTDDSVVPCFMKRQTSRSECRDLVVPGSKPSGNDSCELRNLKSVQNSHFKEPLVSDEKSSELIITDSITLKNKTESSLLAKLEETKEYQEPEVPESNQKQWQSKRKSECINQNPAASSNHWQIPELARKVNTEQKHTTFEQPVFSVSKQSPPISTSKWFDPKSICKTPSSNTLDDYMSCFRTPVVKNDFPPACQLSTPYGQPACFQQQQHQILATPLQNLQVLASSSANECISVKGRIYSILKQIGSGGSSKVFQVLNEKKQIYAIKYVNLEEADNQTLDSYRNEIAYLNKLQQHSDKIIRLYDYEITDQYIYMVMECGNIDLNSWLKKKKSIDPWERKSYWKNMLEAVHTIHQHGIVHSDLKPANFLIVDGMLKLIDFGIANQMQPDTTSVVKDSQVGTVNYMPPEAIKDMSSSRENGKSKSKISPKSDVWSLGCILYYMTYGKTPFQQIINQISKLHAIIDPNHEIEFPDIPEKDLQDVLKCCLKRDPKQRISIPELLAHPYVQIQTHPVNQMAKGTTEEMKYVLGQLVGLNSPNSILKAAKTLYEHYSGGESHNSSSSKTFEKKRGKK

Regarding `COc1cc(-c2ncnn2C)ccc1Nc1cc2cc(-c3cnn(CC(C)(C)O)c3)ccc2cn1` [Example 64, 1-(4-(3-((2-Methoxy-4-(1-methyl-1H-1,2,4-triazol-5-yl)phenyl)amino)isoquinolin-6-yl)-1H-pyrazol-1-yl)-2-methylpropan-2-ol], the IC50 amounted to 1 nM.

In turn, `COc1cc(C(=O)N2CCS(=O)(=O)CC2)ccc1Nc1cc2cc(-c3cnn(CC(C)(C)O)c3)ccc2cn1` [Example 65, (1,1-Dioxidothiomorpholino)(4-((6-(1-(2-hydroxy-2-methylpropyl)-1H-pyrazol-4-yl)isoquinolin-3-yl)amino)-3-methoxyphenyl)methanone] yielded an IC50 of 2 nM.

The molecule `COc1cc(C(=O)N2CCN(C)CC2)ccc1Nc1cc2cc(-c3cnn(CC(C)(C)O)c3)ccc2cn1` [Example 66] gave an IC50 of 2 nM.

Regarding `COc1cc(C(=O)NC2CCN(C)CC2)ccc1Nc1cc2cc(-c3cnn(CC(C)(C)O)c3)ccc2cn1` [Example 67, 4-((6-(1-(2-Hydroxy-2-methylpropyl)-1H-pyrazol-4-yl)isoquinolin-3-yl)amino)-3-methoxy-N-(1-methylpiperidin-4-yl)benzamide], it took 5 nM to reach half-maximal inhibition (IC50).

In turn, `COc1cc(-c2cnc(C)n2CC(C)(C)O)ccc1Nc1cc2cc(-c3cnn(CC(C)(C)O)c3)ccc2cn1` [Example 69, 1-(5-(4-((6-(1-(2-Hydroxy-2-methylpropyl)-1H-pyrazol-4-yl)isoquinolin-3-yl)amino)-3-methoxy-phenyl)-2-methyl-1H-imidazol-1-yl)-2-methylpropan-2-ol] registered an IC50 of 2 nM.

The molecule `COc1cc(-c2nnc3n2CCN(C)C3)ccc1Nc1cc2cc(-c3cnn(CC(C)(C)O)c3)ccc2cn1` [Example 70, 1-(4-(3-((2-Methoxy-4-(7-methyl-5,6,7,8-tetrahydro-[1,2,4]triazolo[4,3-a]pyrazin-3-yl)-phenyl)amino)isoquinolin-6-yl)-1H-pyrazol-1-yl)-2-methylpropan-2-ol] registered a 50% inhibitory concentration (IC50) of 2 nM.

Regarding `COCCn1cc(-c2ccc3cnc(Nc4ccc(C(=O)N5CC(OC)C5)cc4OC)cc3c2)cn1` [Example 72, (3-Methoxy-4-((6-(1-(2-methoxyethyl)-1H-pyrazol-4-yl)isoquinolin-3-yl)amino)phenyl)(3-methoxyazetidin-1-yl)methanone], the IC50 was 3 nM.

`COc1cc(C(=O)N2CC(OC)C2)ccc1Nc1cc2cc(-c3cnn(CC(C)(C)OC)c3)ccc2cn1` [Example 74, (3-Methoxy-4-((6-(1-(2-methoxy-2-rnethylpropyl)-1H-pyrazol-4-yl)isoquinolin-3-yl)amino)-phenyl)(3-methoxyazetidin-1-yl)methanone] had an IC50 of 3 nM.

The molecule `Cc1nnc(-c2ccc(Nc3cc4cc(-c5cnn(CC(C)(C)O)c5)ccc4cn3)c(Cl)c2)o1` [Example 77, 1-(4-(3-((2-Chloro-4-(5-methyl-1,3,4-oxadiazol-2-yl)phenyl)amino)isoquinolin-6-yl)-1H-pyrazol-1-yl)-2-methylpropan-2-ol] yielded an IC50 of 23 nM.

Regarding `COc1cc(S(=O)(=O)N(C)C)ccc1Nc1cc2cc(-c3cnn(CC(C)(C)O)c3)ccc2cn1` [Example 80, 4-((6-(1-(2-Hydroxy-2-methylpropyl)-1H-pyrazol-4-yl)isoquinolin-3-yl)amino)-3-methoxy-N,N-dimethylbenzenesulfonamide], the IC50 was found to be 3 nM.

In turn, `COc1cc(-c2cnc(C#N)n2C)ccc1Nc1cc2cc(-c3cnn(CC(C)(C)O)c3)ccc2cn1` [Example 84, 5-(4-((6-(1-(2-Hydroxy-2-methylpropyl)-1H-pyrazol-4-yl)isoquinolin-3-yl)amino)-3-methoxyphenyl)-1-methyl-1H-imidazole-2-carbonitrile] came in with an IC50 of 5 nM.

`COCC1CN(C(=O)c2ccc(Nc3cc4cc(-c5cnn(CC(C)(C)O)c5)ccc4cn3)c(OC)c2)C1` [Example 86, (4-((6-(1-(2-Hydroxy-2-methylpropyl)-1H-pyrazol-4-yl)isoquinolin-3-yl)amino)-3-methoxy-phenyl)(3-(methoxymethyl)azetidin-1-yl)methanone] returned an IC50 of 7 nM.

`COc1cc(C(=O)N2CC(OC)C2)ccc1Nc1cc2cc(-c3cnn(CC4(O)CCC4)c3)ccc2cn1` [Example 87, (4-((6-(1-((1-Hydroxycyclobutyl)methyl)-1H-pyrazol-4-yl)isoquinolin-3-yl)amino)-3-methoxy-phenyl)(3-methoxyazetidin-1-yl)methanone]: half-maximal inhibition (IC50) was put at 8 nM.

In the case of `CCOc1cc(-c2nncn2C)ccc1Nc1cc2cc(-c3cnn(CC4(O)CCC4)c3)ccc2cn1` [Example 88, 1-((4-(3-((2-Ethoxy-4-(4-methyl-4H-1,2,4-triazol-3-yl)phenyl)amino)isoquinolin-6-yl)-1H-pyrazol-1-yl)methyl)cyclobutanol], the IC50 turned out to be 7 nM.

`COc1cc(-c2cnc(C)n2C)ccc1Nc1cc2cc(C(=O)N(C)C)ccc2cn1` [Example 89, 3-((4-(1,2-Dimethyl-1H-imidazol-5-yl)-2-methoxyphenyl)amino)-N,N-dimethylisoquinoline-6-carboxamideone] yielded an IC50 of 472 nM.

`CNC(=O)c1ccc2cnc(Nc3ccc(-c4cnc(C)n4C)cc3OC)cc2c1` [Example 90, 3-((4-(1,2-Dimethyl-1H-imidazol-5-yl)-2-methoxyphenyl)amino)-N-methylisoquinoline-6-carboxamide] came in with an IC50 of 5 nM.

Molecule `COC1CN(C(=O)c2ccc(Nc3cc4cc(-c5cnn(CC(C)(C)O)c5)ccc4cn3)c(OC(F)F)c2)C1` [Example 91, (3-(Difluoromethoxy)-4-(6-(1-(2-hydroxy-2-methylpropyl)-1H-pyrazol-4-yl)isoquinolin-3-ylamino)phenyl)(3-methoxyazetidin-1-yl)methanone] came in with an IC50 of 2 nM.

Regarding `CCOc1cc(C(=O)N2CC(OC)C2)ccc1Nc1cc2cc(-c3cnn(CC(C)(C)O)c3)ccc2cn1` [Example 92, (3-Ethoxy-4-(6-(1-(2-hydroxy-2-methylpropyl)-1H-pyrazol-4-yl)isoquinolin-3-ylamino)phenyl)(3-methoxyazetidin-1-yl)methanone], the IC50 came out at 2 nM.

On to `COc1cc(C(=O)N2CC(F)(F)C2)ccc1Nc1cc2cc(-c3cnn(CC(C)(C)O)c3)ccc2cn1` [Example 93, (3,3-Difluoroazetidin-1-yl)(4-(6-(1-(2-hydroxy-2-methylpropyl)-1H-pyrazol-4-yl)isoquinolin-3-ylamino)-3-methoxyphenyl)methanone], for which 5 nM corresponded to half-maximal inhibition (IC50).

Molecule `COc1cc(C(=O)N2CCC(C#N)CC2)ccc1Nc1cc2cc(-c3cnn(CC(C)(C)O)c3)ccc2cn1` [Example 94, 1-(4-(6-(1-(2-Hydroxy-2-methylpropyl)-1H-pyrazol-4-yl)isoquinolin-3-ylamino)-3-methoxybenzoyl)piperidine-4-carbonitrile] showed an IC50 of 2 nM.

`COc1cc(C(=O)N2CC3(CCOC3)C2)ccc1Nc1cc2cc(-c3cnn(CC(C)(C)O)c3)ccc2cn1` [Example 95, (4-(6-(1-(2-Hydroxy-2-methylpropyl)-1H-pyrazol-4-yl)isoquinolin-3-ylamino)-3-methoxyphenyl)(6-oxa-2-azaspiro[3,4]octan-2-yl)methanone] had an IC50 of 1 nM.

As to `COc1cc(C(=O)N2CC(OC)C2)ccc1Nc1cc2cc(-c3cn(CC(C)(C)O)nn3)ccc2cn1` [Example 96, (4-(6-(1-(2-Hydroxy-2-methylpropyl)-1H-1,2,3-triazol-4-yl)isoquinolin-3-ylamino)-3-methoxyphenyl)(3-methoxyazetidin-1-yl)methanone], it took 2 nM to reach half-maximal inhibition (IC50).

These data come from US9334286B2, “Pharmacologically active compounds” (Cancer Research Technology Limited, priority 2012, dated 2016).
